Reference: the CheMixHub viscosity set
Values joined by “and” are separate entries in the source; they are usually repeats but may differ in a detail not shown here. Identical values can stand only once. ± gives the uncertainty stated by the source.

Key:
[1] = xn = mol fraction of the nth substance listed

C1CCCC1
viscosity [mPa·s]
Settings | 293.15 K | 303.15 K | 313.15 K
100 kPa | 0.428 ± 0.03 | 0.385 ± 0.03 | 0.348 ± 0.03
101 kPa | – | 0.387 ± 0.0033 | –
101.3 kPa | – | – | 0.3545 ± 0.004

C=CCc1ccc2c(c1)OCO2
Settings | viscosity [mPa·s]
298.15 K, 101 kPa | 2.29 ± 0.028

CC(=O)OC(C)=O
viscosity [mPa·s]
Settings | 298.15 K | 313.15 K | 323.15 K
101 kPa | 0.842 ± 0.008 | 0.693 ± 0.007 | –
101.33 kPa | 0.831 ± 0.0083 | – | 0.611 ± 0.0061

CC(C)(C)C1CCCCC1
102 kPa
Settings | viscosity [mPa·s]
293.15 K | 1.7 ± 0.02
303.15 K | 1.42 ± 0.02
313.15 K | 1.21 ± 0.02
323.15 K | 1.04 ± 0.02

CCC(=O)CC
viscosity
Settings | 298.15 K | 303.15 K | 308.15 K | 313.15 K | 318.15 K
100 kPa | – | 0.428 ± 0.017 mPa·s | – | 0.366 ± 0.015 mPa·s | –
101 kPa | 0.449 ± 0.006 mPa·s and 0.437 ± 0.016 mPa·s | – | 0.396 ± 0.005 mPa·s and 0.393 ± 0.016 mPa·s | 0.376 ± 0.011 mPa·s and 0.376 ± 0.005 mPa·s | –
101.33 kPa | 0.408 ± 0.005 mPa·s | 0.424 ± 0.012 mPa·s | 0.373 ± 0.005 mPa·s | – | 0.351 ± 0.005 mPa·s

CCC(C)CC(C)C (centres undefined)
100 kPa
Settings | viscosity [mPa·s]
293.15 K | 0.476 ± 0.01
298.15 K | 0.455 ± 0.01
303.15 K | 0.434 ± 0.009
308.15 K | 0.416 ± 0.009
313.15 K | 0.4 ± 0.009

CCN(CC)C(C)=O
Settings | viscosity [mPa·s]
298.16 K, 101 kPa | 1.226 ± 0.011

CN1CCCC1=O
viscosity
Settings | 293.15 K | 298 K | 303 K | 303.15 K | 313 K | 313.15 K | 318 K | 323 K | 323.15 K
100 kPa | 1.853 ± 0.076 mPa·s | – | – | – | – | – | – | – | –
101 kPa | 1.91 ± 0.018 mPa·s | 1.61 ± 0.16 mPa·s | 1.5 ± 0.15 mPa·s | 1.623 ± 0.016 mPa·s and 1.521 ± 0.019 mPa·s | 1.29 ± 0.13 mPa·s | 1.401 ± 0.014 mPa·s and 1.3 ± 0.52 mPa·s | 1.22 ± 0.12 mPa·s | 1.12 ± 0.11 mPa·s | 1.231 ± 0.013 mPa·s

C[n+]1ccn(CCCCCn2cc[n+](C)c2)c1.O=S(=O)([N-]S(=O)(=O)C(F)(F)F)C(F)(F)F.O=S(=O)([N-]S(=O)(=O)C(F)(F)F)C(F)(F)F
101 kPa
Settings | viscosity
293.15 K | 1125 ± 120 mPa·s and 1123 ± 120 mPa·s
303.15 K | 554.9 ± 45 mPa·s and 556.8 ± 45 mPa·s
313.15 K | 313.4 ± 20 mPa·s and 310.4 ± 19 mPa·s
323.15 K | 192.3 ± 9 mPa·s and 188.8 ± 8.7 mPa·s

NCCO
viscosity
Settings | 293.15 K | 298.15 K | 303.15 K | 313.15 K | 318.15 K | 323.15 K
101 kPa | 31.3 ± 0.52 mPa·s | 18.64 ± 7.5 mPa·s | 15.34 ± 0.18 mPa·s and 14.05 ± 0.1 mPa·s | 9.9 ± 4 mPa·s and 9.972 ± 0.14 mPa·s and 9.95 ± 0.07 mPa·s | 8.1 ± 3.2 mPa·s | 6.88 ± 0.08 mPa·s and 9.44 ± 0.18 mPa·s and 7.01 ± 0.1 mPa·s
101.3 kPa | – | – | – | 9.702 ± 0.069 mPa·s | – | –

NCCO.O=S(=O)([N-]S(=O)(=O)C(F)(F)F)C(F)(F)F.[Li+]
Settings | viscosity [mPa·s]
323.15 K, 101 kPa | 1157 ± 260

OCc1ccccc1
Settings | viscosity
293.15 K, 100 kPa | 6.421 ± 0.13 mPa·s
293.15 K, 101.33 kPa | 6.536 ± 0.054 mPa·s
298.15 K, 101 kPa | 4.936 ± 0.21 mPa·s and 5.54 ± 0.11 mPa·s and 5.737 ± 0.15 mPa·s
298.15 K, 101.3 kPa | 5.313 ± 0.063 mPa·s
298.15 K, 101.33 kPa | 5.276 ± 0.14 mPa·s
303.15 K, 101.3 kPa | 4.609 ± 0.26 mPa·s and 4.515 ± 0.054 mPa·s
308.15 K, 101 kPa | 3.66 ± 0.16 mPa·s and 4.045 ± 0.19 mPa·s
308.15 K, 101.3 kPa | 3.877 ± 0.047 mPa·s
308.15 K, 101.33 kPa | 3.891 ± 0.11 mPa·s
313.15 K, 101 kPa | 3.121 ± 0.14 mPa·s and 3.614 ± 0.17 mPa·s and 3.51 ± 0.07 mPa·s
318.15 K, 101.33 kPa | 2.945 ± 0.081 mPa·s
323.15 K, 101 kPa | 2.646 ± 0.022 mPa·s and 2.548 ± 0.11 mPa·s
323.15 K, 101.33 kPa | 2.591 ± 0.071 mPa·s

NCCO + OCCO
[1], 101.33 kPa
Settings | viscosity [mPa·s]
293.15 K, x2 = 0.1246 | 29.94 ± 0.35
293.15 K, x2 = 0.2055 | 32.9 ± 0.38
293.15 K, x2 = 0.2907 | 35.07 ± 0.4
293.15 K, x2 = 0.4172 | 36.01 ± 0.41
293.15 K, x2 = 0.496 | 34.47 ± 0.39
293.15 K, x2 = 0.5176 | 33.73 ± 0.38
293.15 K, x2 = 0.6654 | 29.06 ± 0.33
293.15 K, x2 = 0.701 | 28.14 ± 0.32
293.15 K, x2 = 0.789 | 25.17 ± 0.28
293.15 K, x2 = 0.8248 | 23.8 ± 0.27
293.15 K, x2 = 0.8691 | 22.48 ± 0.25
293.15 K, x2 = 0.9427 | 21.11 ± 0.24
293.15 K, x2 = 0.9527 | 20.92 ± 0.24
303.15 K, x1 = 0.155 | 16.74 ± 0.2
303.15 K, x1 = 0.303 | 19.61 ± 0.24
313.15 K, x1 = 0.155 | 11.41 ± 0.14
313.15 K, x1 = 0.303 | 13.08 ± 0.16
323.15 K, x1 = 0.155 | 8.112 ± 0.099
323.15 K, x1 = 0.303 | 9.172 ± 0.11

OCc1ccccc1 + OCCO
[1], 293.15 K, 101.33 kPa
Settings | viscosity [mPa·s]
x2 = 0.0946 | 7.031 ± 0.056
x2 = 0.1648 | 7.627 ± 0.06
x2 = 0.1834 | 7.781 ± 0.06
x2 = 0.2979 | 8.824 ± 0.066
x2 = 0.4721 | 10.98 ± 0.077
x2 = 0.5503 | 12.18 ± 0.084
x2 = 0.6255 | 13.48 ± 0.091
x2 = 0.6888 | 14.69 ± 0.097
x2 = 0.7556 | 16.05 ± 0.1
x2 = 0.7929 | 16.82 ± 0.11
x2 = 0.8219 | 17.42 ± 0.11
x2 = 0.8789 | 18.75 ± 0.12
x2 = 0.9113 | 19.36 ± 0.12

[Br-].[Na+] + OCCO
[1], 101 kPa, x1 = 0.142
Settings | viscosity [mPa·s]
303 K | 39.03 ± 0.57
313 K | 25.16 ± 0.35
323 K | 17.24 ± 0.23

CCCC[n+]1ccn(C)c1.C[C@H](N)C(=O)[O-] + OCc1ccccc1
[1], 101 kPa
Settings | viscosity [mPa·s]
298.15 K, x1 = 0.4864 | 18.75 ± 1.2
313.15 K, x1 = 0.6945 | 18.65 ± 1.2

CC(=O)OC(C)=O + Oc1ccccc1
viscosity [mPa·s], [1], 101.33 kPa
Settings | 298.15 K | 323.15 K
x2 = 0.0899 | 0.922 ± 0.0092 | 0.666 ± 0.0067
x2 = 0.1347 | 0.98 ± 0.0098 | 0.706 ± 0.0071
x2 = 0.1492 | 1.014 ± 0.01 | 0.733 ± 0.0073
x2 = 0.2953 | 1.267 ± 0.013 | 0.896 ± 0.009
x2 = 0.3588 | 1.412 ± 0.014 | 0.951 ± 0.0095
x2 = 0.4184 | 1.559 ± 0.016 | 1.05 ± 0.01
x2 = 0.4673 | 1.706 ± 0.017 | 1.1 ± 0.011
x2 = 0.4678 | 1.707 ± 0.017 | 1.1 ± 0.011
x2 = 0.5 | 1.839 ± 0.018 | 1.164 ± 0.012
x2 = 0.5169 | 1.89 ± 0.019 | 1.191 ± 0.012
x2 = 0.5846 | 2.069 ± 0.021 | 1.275 ± 0.013
x2 = 0.6414 | 2.668 ± 0.027 | 1.513 ± 0.015
x2 = 0.78 | 3.958 ± 0.04 | 2.017 ± 0.02
x2 = 0.8878 | 5.906 ± 0.059 | 2.623 ± 0.026

OCc1ccccc1 + c1ccccc1
[1]
Settings | viscosity
293.15 K, 101.32 kPa, x1 = 0.03068 | 0.6725 ± 0.14 mPa·s
293.15 K, 101.32 kPa, x1 = 0.04509 | 0.6903 ± 0.14 mPa·s
293.15 K, 101.32 kPa, x1 = 0.1059 | 0.7825 ± 0.16 mPa·s
293.15 K, 101.32 kPa, x1 = 0.1545 | 0.8652 ± 0.17 mPa·s
293.15 K, 101.32 kPa, x1 = 0.1997 | 0.9735 ± 0.2 mPa·s
298.15 K, 101.33 kPa, x1 = 0.1 | 0.7 ± 0.019 mPa·s
298.15 K, 101.33 kPa, x1 = 0.2 | 0.855 ± 0.017 mPa·s and 0.855 ± 0.023 mPa·s
298.15 K, 101.33 kPa, x1 = 0.5 | 1.712 ± 0.034 mPa·s and 1.712 ± 0.047 mPa·s
298.15 K, 101.33 kPa, x1 = 0.8 | 3.267 ± 0.091 mPa·s
303.15 K, 101 kPa, x1 = 0.1079 | 0.8732 ± 0.0083 mPa·s
303.15 K, 101 kPa, x1 = 0.2167 | 1.03 ± 0.0097 mPa·s
303.15 K, 101 kPa, x1 = 0.3472 | 1.291 ± 0.012 mPa·s
303.15 K, 101 kPa, x1 = 0.4657 | 1.601 ± 0.015 mPa·s
303.15 K, 101 kPa, x1 = 0.5516 | 1.877 ± 0.017 mPa·s
303.15 K, 101 kPa, x1 = 0.6577 | 2.306 ± 0.021 mPa·s
303.15 K, 101 kPa, x1 = 0.7244 | 2.653 ± 0.023 mPa·s
303.15 K, 101 kPa, x1 = 0.868 | 3.594 ± 0.031 mPa·s
303.15 K, 101 kPa, x1 = 0.9178 | 3.983 ± 0.035 mPa·s
308.15 K, 101.33 kPa, x1 = 0.1 | 0.597 ± 0.016 mPa·s
308.15 K, 101.33 kPa, x1 = 0.2 | 0.714 ± 0.019 mPa·s
308.15 K, 101.33 kPa, x1 = 0.5 | 1.379 ± 0.038 mPa·s
308.15 K, 101.33 kPa, x1 = 0.8 | 2.433 ± 0.067 mPa·s
318.15 K, 101.33 kPa, x1 = 0.1 | 0.526 ± 0.014 mPa·s
318.15 K, 101.33 kPa, x1 = 0.2 | 0.617 ± 0.017 mPa·s
318.15 K, 101.33 kPa, x1 = 0.5 | 1.139 ± 0.031 mPa·s
318.15 K, 101.33 kPa, x1 = 0.8 | 1.904 ± 0.052 mPa·s
323.15 K, 101.33 kPa, x1 = 0.1 | 0.493 ± 0.013 mPa·s
323.15 K, 101.33 kPa, x1 = 0.2 | 0.578 ± 0.012 mPa·s and 0.575 ± 0.016 mPa·s
323.15 K, 101.33 kPa, x1 = 0.5 | 1.026 ± 0.021 mPa·s and 1.026 ± 0.028 mPa·s
323.15 K, 101.33 kPa, x1 = 0.8 | 1.695 ± 0.046 mPa·s

c1ccc(-c2ccccc2)cc1 + c1ccccc1
[1], 298.15 K, 101 kPa
Settings | viscosity [mPa·s]
x1 = 0.1006 | 0.7585 ± 0.02
x1 = 0.1824 | 0.9014 ± 0.024
x1 = 0.3638 | 1.298 ± 0.034

O=CNc1ccccc1 + c1ccncc1
[1], 298.15 K, 101 kPa
Settings | viscosity [mPa·s]
x1 = 0.06989 | 1.089 ± 0.22
x1 = 0.1339 | 1.335 ± 0.27
